Test results taken from patent publication US20240103006A1 (Roche Diagnostics Operations, Inc., priority 2021, published 2024).
“And” between values parts separate entries of the source, which are not always exact repeats. Equal values may be shown once.

Legend:
[1] = solvent as listed per probe; cited from earlier work
[2] = UV-vis spectral properties / extinction coefficients in aqueous buffer; type: physicochemical; details: for ε at λmax / λmax: merocyanine dyes; for ε of long-wavelength band of probe / ε of short-wavelength band(s) of probe / λmax, long-wavelength band of probe / λmax, short-wavelength band(s) of probe: probe before addition of Cys, 25 mM HEPES pH 7.4
Experimental: Absorption spectra were recorded on a Cary 50 UV-vis spectrometer from Varian. All measurements were performed in 1 cm UV-vis disposable cuvettes (BRAND semi-micro) and air-equilibrated solutions at 25±0.1° C. A total assay volume of 1.0 mL was used for each measurement. UV-vis scan spectra were recorded using following parameters: average time 0.05 s; data interval 1 nm; scan rate 1200 nm/min; with base line correction.
(§1) Stock solutions of assayed compounds (2-5 mM) were prepared in H2O-DMSO (1:1), stored at −20° C., and diluted to 1.0 mM with buffer before use. The L-Cys stock solution (20.0 mM) was freshly prepared in buffer before the measurements. […]
For a measurement, 1000 μL of buffer and 1-50 μL of probe (1.0 mM) were mixed, and then transferred to a cuvette. Absorbance spectra (250-800 nm) were measured against a blank of the buffer. At least six concentrations of each compound were used to calculate extinction coefficients from the slope of probe concentration vs absorbance plots, using MS Excel software (Microsoft).

[3] = Cys-response screening by UV-vis (cleavage of acryloyl ester by excess Cys); details: 25 mM HEPES pH 7.4; for ε^Cys / λ^Cys: after excess Cys (100 μM), 37° C., 15 min; for SNR: from ε^Cys and ε^blank
Experimental: as §1
In the same manner, ε^Cys was determined from the solutions of probe reacted with an excess of Cys (100 μM). The reactions were performed at 37° C. (incubation time 15 min). Blank reactions were run without addition of Cys.
Spectra recorded in the presence of Cys confirmed a colorimetric response through the cleavage of acryloyl ester. […] Moreover, their spectral profiles were advantageously fulfilling the wavelength requirement for the Cys sensing application in Cedex system (340, 378, 409, 480, 512, 520, 552, 583, 629, 652, 659 and 800 nm).

[4] = Evaluation of stability (hydrolysis of probe in buffer, UV-vis); type: physicochemical; details: 25 mM HEPES pH 7.4, 15.6 μM, 5 h, ε from merocyanine analogues (LZ07: ε from Table 2)
Experimental: For a measurement, 1000 μL of buffer and 16 μL of probe (1.0 mM) were mixed, and then incubated at +4° C. and at +37° C. for 5 h. The resulting mixtures were transferred to a cuvette, and the absorbance (250-800 nm) was measured. Each measurement was done in triplicate.
[…] Solutions of each probe were monitored by UV-vis for 5 h.

C=CC(=O)OC1=C(/C=C/C2=[N+](CCC)c3ccccc3C2(C)C)CCC/C1=C\C=C1\N(CCC)c2ccccc2C1(C)C
Spectra: Probe [1]: 775 nm
Spectra: With Cys [1]: 515 nm

C=CC(=O)Oc1ccc2c(c1)Oc1cc(OC(=O)C=C)ccc1C21OC(=O)c2ccccc21
Spectra: With Cys [1]: With Cys 490 nm

C=CC(=O)Oc1ccc(/C=C/c2sc3ccccc3[n+]2CC)c2cccnc12
Spectra: Probe [1]: 387 nm
Spectra: With Cys [1]: 566 nm

C=CC(=O)Oc1ccc2c(c1)OC1CCCC(=O)C1=C2 (centres unmarked)
Spectra: With Cys [1]: 398 nm

C=CC(=O)Oc1ccc2c(c1)OC1=C(/C=C/C3=[N+](C)c4ccccc4C3(C)C)CCCC1=C2
Spectra: Probe [1]: 582 nm
Spectra: With Cys [1]: 674 nm

C=CC(=O)Oc1ccc(/C=C/c2cc[n+](C)cc2)cc1
Spectra: Probe [1]: 335 nm
Spectra: With Cys [1]: 372 nm

C=CC(=O)Oc1ccc(/C=C/C2=CC(=C(C#N)C#N)c3ccccc3O2)cc1
Spectra: Probe [1]: 381 nm
Spectra: With Cys [1]: 557 nm

C=CC(=O)Oc1ccc2c(c1)oc(=O)c1c(=O)oc3ccccc3c12
Spectra: Probe [1]: 350 nm
Spectra: With Cys [1]: 445 nm

C=CC(=O)Oc1ccc2cc(/C=C/C3=[N+](C)c4c(ccc5ccccc45)C3(C)C)ccc2c1
Spectra: With Cys [1]: With Cys 460 nm

C=CC(=O)Oc1ccc2c(c1)Oc1c(ccc3oc(=O)c(C(=O)OCC)cc13)C21OC(=O)c2ccccc21 (centres unmarked)
Spectra: Probe [1]: 332 nm
Spectra: With Cys [1]: 450 nm

C=CC(=O)Oc1ccc2cc(/C=C/C3=[N+](C)c4ccccc4C3(C)C)ccc2c1
Spectra: Probe [1]: 409 nm
Spectra: With Cys [1]: 448 nm

C=CC(=O)Oc1ccc(/C=C/C(=O)/C=C(O)/C=C/c2ccc(OC(=O)C=C)c(OC)c2)cc1OC
Spectra: Probe [1]: 400 nm
Spectra: With Cys [1]: 427 nm

C=CC(=O)Oc1cccc2c1C(=O)N(Cc1cccc[n+]1CC)C2=O
Spectra: Probe [1]: 360 nm
Spectra: With Cys [1]: 400 nm

C=CC(=O)Oc1ccc2c(c1)OC1=C(/C=C/C3CC(=C(C#N)C#N)c4ccccc4O3)CCCC1=C2 (centres unmarked)
Spectra: Probe [1]: 550 nm
Spectra: With Cys [1]: 600 nm

CC1(C)C(/C=C/c2ccc(O)cc2)=[N+](CCCCS(=O)(=O)[O-])c2ccccc21 [LZ04, reference compound]
ε at λmax ([2]; 25 mM HEPES pH 7.4, 1-24 μM): 36.6 mM⁻¹ cm⁻¹
λmax ([2]; 25 mM HEPES pH 7.4, 1-24 μM): 527 nm
ε at λmax ([2]; same buffer at pH 8.0): 45.6 mM⁻¹ cm⁻¹
λmax ([2]; same buffer at pH 8.0): 527 nm

C[N+]1=C(/C=C/c2ccc(O)cc2)C(C)(C)c2ccccc21.[I-] [LZ06, reference compound]
ε at λmax ([2]; 25 mM HEPES pH 7.4, 1-24 μM): 27 to 37 mM⁻¹ cm⁻¹
λmax ([2]; 25 mM HEPES pH 7.4, 1-24 μM): 520 nm
ε at λmax ([2]; same buffer at pH 8.0): 37 to 53 mM⁻¹ cm⁻¹
λmax ([2]; same buffer at pH 8.0): 520 nm

Cc1cc(/C=C/C2=[N+](CCCCS(=O)(=O)[O-])c3ccccc3C2(C)C)cc(C)c1O [MF51]
ε at λmax ([2]; 25 mM HEPES pH 7.4, 1-24 μM): 73.9 mM⁻¹ cm⁻¹
λmax ([2]; 25 mM HEPES pH 7.4, 1-24 μM): 550 nm

COc1cc(O)ccc1/C=C/C1=[N+](CCCCS(=O)(=O)[O-])c2ccccc2C1(C)C [MF52]
ε at λmax ([2]; 25 mM HEPES pH 7.4, 1-24 μM): 70.1 mM⁻¹ cm⁻¹
λmax ([2]; 25 mM HEPES pH 7.4, 1-24 μM): 529 nm

COc1cc(/C=C/C2=[N+](CCCCS(=O)(=O)[O-])c3ccccc3C2(C)C)ccc1O [MF53]
ε at λmax ([2]; 25 mM HEPES pH 7.4, 1-24 μM): 65.3 mM⁻¹ cm⁻¹
λmax ([2]; 25 mM HEPES pH 7.4, 1-24 μM): 548 nm

CC1(C)C(/C=C/c2ccc(O)c(S(=O)(=O)[O-])c2)=[N+](CCCCS(=O)(=O)O)c2ccccc21 [MF54]
ε at λmax ([2]; 25 mM HEPES pH 7.4, 1-24 μM): 44.9 mM⁻¹ cm⁻¹
λmax ([2]; 25 mM HEPES pH 7.4, 1-24 μM): 528 nm

CC1(C)C(/C=C/c2ccc(O)c3ccccc23)=[N+](CCCCS(=O)(=O)[O-])c2ccccc21 [MF56]
ε at λmax ([2]; 25 mM HEPES pH 7.4, 1-24 μM): 109.7 mM⁻¹ cm⁻¹
λmax ([2]; 25 mM HEPES pH 7.4, 1-24 μM): 582 nm

CC1(C)C(/C=C/c2ccc(O)c3ncccc23)=[N+](CCCCS(=O)(=O)[O-])c2ccccc21 [MF57]
ε at λmax ([2]; 25 mM HEPES pH 7.4, 1-24 μM): 106.3 mM⁻¹ cm⁻¹
λmax ([2]; 25 mM HEPES pH 7.4, 1-24 μM): 572 nm

CC1(C)C(/C=C/c2ccc(O)cc2S(=O)(=O)[O-])=[N+](CCCCS(=O)(=O)O)c2ccccc21 [MF58]
ε at λmax ([2]; 25 mM HEPES pH 7.4, 1-24 μM): 48.1 mM⁻¹ cm⁻¹
λmax ([2]; 25 mM HEPES pH 7.4, 1-24 μM): 514 nm

C=CC(=O)Oc1ccc(/C=C/C2=[N+](CCCCS(=O)(=O)[O-])c3ccccc3C2(C)C)c(OC)c1 [MF60]
ε of long-wavelength band of probe [2]: 2.1 mM⁻¹ cm⁻¹
ε of short-wavelength band(s) of probe [2]: 14.3 mM⁻¹ cm⁻¹
λmax, long-wavelength band of probe [2]: 530 nm
λmax, short-wavelength band(s) of probe [2]: 409 nm
ε^Cys [3]: 67.8 mM⁻¹ cm⁻¹
λ^Cys [3]: 529 nm
SNR [3]: 14
Hydrolysis @4° C. [4]: 9.8 ± 0.3%
Hydrolysis @37° C. [4]: 41.8 ± 0.9%

C=CC(=O)Oc1ccc(/C=C/C2=[N+](CCCCS(=O)(=O)[O-])c3ccccc3C2(C)C)cc1OC [MF61]
ε of long-wavelength band of probe [2]: 0.4 mM⁻¹ cm⁻¹
ε of short-wavelength band(s) of probe [2]: 20.4 mM⁻¹ cm⁻¹
λmax, long-wavelength band of probe [2]: 548 nm
λmax, short-wavelength band(s) of probe [2]: 397 nm
ε^Cys [3]: 61.7 mM⁻¹ cm⁻¹
λ^Cys [3]: 549 nm
SNR [3]: 36
Hydrolysis @4° C. [4]: 4.8 ± 0.1%
Hydrolysis @37° C. [4]: 29.1 ± 1.9%

C=CC(=O)Oc1ccc(/C=C/C2=[N+](CCCCS(=O)(=O)[O-])c3ccccc3C2(C)C)c2ccccc12 [MF62]
ε of long-wavelength band of probe [2]: 1.5 mM⁻¹ cm⁻¹
ε of short-wavelength band(s) of probe [2]: 8.5 mM⁻¹ cm⁻¹ and 7.7 mM⁻¹ cm⁻¹
λmax, long-wavelength band of probe [2]: 582 nm
λmax, short-wavelength band(s) of probe [2]: 419 nm and 287 nm
ε^Cys [3]: 105.3 mM⁻¹ cm⁻¹
λ^Cys [3]: 582 nm
SNR [3]: 20
Hydrolysis @4° C. [4]: 7.6 ± 0.5%
Hydrolysis @37° C. [4]: 40.4 ± 0.6%

C=CC(=O)Oc1ccc(/C=C/C2=[N+](CCCCS(=O)(=O)[O-])c3ccccc3C2(C)C)c2cccnc12 [MF63]
ε of long-wavelength band of probe [2]: 2.9 mM⁻¹ cm⁻¹
ε of short-wavelength band(s) of probe [2]: 14.0 mM⁻¹ cm⁻¹
λmax, long-wavelength band of probe [2]: 572 nm
λmax, short-wavelength band(s) of probe [2]: 397 nm
ε^Cys [3]: 93.4 mM⁻¹ cm⁻¹
λ^Cys [3]: 572 nm
SNR [3]: 10
Hydrolysis @4° C. [4]: 9.8 ± 1.5%
Hydrolysis @37° C. [4]: 55.3 ± 0.7%

C=CC(=O)Oc1ccc(/C=C/C2=[N+](CCCCS(=O)(=O)O)c3ccccc3C2(C)C)c(S(=O)(=O)[O-])c1 [MF64]
ε of long-wavelength band of probe [2]: 0.7 mM⁻¹ cm⁻¹
ε of short-wavelength band(s) of probe [2]: 8.0 mM⁻¹ cm⁻¹
λmax, long-wavelength band of probe [2]: 514 nm
λmax, short-wavelength band(s) of probe [2]: 350 nm
ε^Cys [3]: 32.1 mM⁻¹ cm⁻¹
λ^Cys [3]: 514 nm
SNR [3]: 14
Hydrolysis @4° C. [4]: 8.9 ± 0.2%
Hydrolysis @37° C. [4]: 45.2 ± 1.4%

Cc1cc(/C=C/C2=[N+](CCCS(=O)(=O)O)c3ccc(S(=O)(=O)[O-])cc3C2(C)C)cc(C)c1O [MF66]
ε at λmax ([2]; 25 mM HEPES pH 7.4, 1-24 μM): 122.6 mM⁻¹ cm⁻¹
λmax ([2]; 25 mM HEPES pH 7.4, 1-24 μM): 556 nm
ε at λmax ([2]; same buffer at pH 8.0): 138.6 mM⁻¹ cm⁻¹
λmax ([2]; same buffer at pH 8.0): 556 nm

Cc1cc(/C=C/C2=[N+](C)c3ccccc3C2(C)C)cc(C)c1O [MF67]
ε at λmax ([2]; 25 mM HEPES pH 7.4, 1-24 μM): 67.4 mM⁻¹ cm⁻¹
λmax ([2]; 25 mM HEPES pH 7.4, 1-24 μM): 546 nm
ε at λmax ([2]; same buffer at pH 8.0): 84.9 mM⁻¹ cm⁻¹
λmax ([2]; same buffer at pH 8.0): 546 nm

COc1cc(/C=C/C2=[N+](CCCCS(=O)(=O)[O-])c3ccccc3C2(C)C)cc(OC)c1O [MF68]
ε at λmax ([2]; 25 mM HEPES pH 7.4, 1-24 μM): 70.0 mM⁻¹ cm⁻¹
λmax ([2]; 25 mM HEPES pH 7.4, 1-24 μM): 575 nm

C=CC(=O)Oc1ccc(/C=C/C2=[N+](C)c3ccccc3C2(C)C)cc1 [drawing 16]
Spectra: Probe [1]: 384 nm
Spectra: With Cys [1]: 512 nm
